# Assay results as given in the METLIN SMRT retention time set (Domingo-Almenara et al. 2019).
# Test: gradient 5% acetonitrile 3 min, to 50% in 2 min, to 85% in 15 min, held 3 min, 100 µL/min
# Settings: column: Zorbax Extend-C18 2.1 x 50 mm; eluents: water / acetonitrile, 0.1% formic acid
# In short: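 Retention times come from adduct peaks that were picked computationally and then checked by hand. The standards, pure and pooled in mixtures of ~100 molecules, were run on a Zorbax Extend-C18 column (2.1 × 50 mm, 1.8 μm) at 100 μL/min with water and acetonitrile, each with 0.1% formic acid. Detection was by quadrupole time-of-flight mass spectrometry in positive and negative ionization mode, with a dead volume of 40 μL and a dwell volume of 900 μL.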
row,RP-LC retention time [s],SMILES
1,661,COc1ccc(S(=O)(=O)Nc2ccc(-c3cn4ccc(C)nc4n3)cc2)cc1C
2,787,CCCCCOc1ccc(C(=O)CCNC(Cc2c[nH]c3ccccc23)C(=O)O)cc1 (configuration not stated)
3,931,O=C(CN1CCN(Cc2cccc(Cl)c2)C1=O)NCc1ccc(C(F)(F)F)cc1
4,845,CCCn1cc(S(=O)(=O)Nc2cccc(C)c2)c2cccnc21
5,858,Cc1nc2cc(-c3noc(CNC(=O)Cc4ccc(Cl)cc4)n3)ccc2o1
6,879,O=C(NOCC(O)CO)c1cc(Br)c(F)c(F)c1Nc1ccc(I)cc1F (configuration not stated)
7,764,CCC(=O)N(C1CCOCC1)C1CCN(S(=O)(=O)c2ccccc2)CC1
8,1030,Cc1csc(-c2cc(S(=O)(=O)NCc3ccc(C(C)C)cc3)cn2CC(=O)N2CCCC2)n1
9,773,Cc1noc(-c2ccnc(-n3cnc(C(=O)NCC(C)C)c3)c2)n1
10,694,O=C(c1cnccn1)N1CCC2(CC1)CC(OCC1CC1)CCO2 (configuration not stated)
11,736,Cc1cccc(-c2nnc(C)c(NCc3ccc(C)o3)n2)c1
12,794,O=C(NC1CCCCCC1)C1CCN(C(=O)c2ncn3c2COC(c2ccccc2)C3)CC1 (configuration not stated)
13,557,Cc1ccc2c(n1)nn1c(C)cc(C)nc21
14,600,CCOCC(=O)N1CC(c2nc(CCOC)no2)C1
15,650,CCOC(=O)C1=C(c2ccccc2)NC(SCC)=C(C#N)C1c1cccnc1 (configuration not stated)
16,1170,COc1ccc(/C=C/c2ccccc2F)cc1
17,856,CCOc1ccc(N2C=C(C(=O)OC)S(=O)(=O)c3ccc(F)cc32)cc1
18,794,COc1ccc(C2CNC(=O)C2)cc1OC1CCCC1 (configuration not stated)
19,663,COCCNC(=O)c1nnn(-c2ccc(F)cc2)c1-c1ccncc1
20,910,CCOC(=O)C1=C(C)N(CC(=O)NC(C)CC)c2ncnn2C1c1ccc(C)cc1 (configuration not stated)
21,710,CN1C(=O)C(=C2CCCC2)c2cc(S(=O)(=O)N3CCN(c4ccccn4)CC3)ccc21
22,558,COCC(=O)Nc1ccc2nc(N3CCN(CC(=O)N4CCCCC4)CC3)cc(C(=O)O)c2c1
23,605,CCc1cccc(NC(=O)c2cc3n(n2)CC(C)(C(=O)NC2CCCC2)N(CC)C3=O)c1 (configuration not stated)

row,RP-LC retention time [s],SMILES
1,845,COc1cccc(CNC(=O)C2CCCN(C(=O)c3[nH]c(C)c(C(=O)OC(C)C)c3C)C2)c1 (configuration not stated)
2,1310,CCOc1ccc(-c2csc(Cc3nc(-c4ccccc4C)no3)n2)cc1
3,859,O=C(NC1CC1)c1nnn2c1COC(c1ccc(Cl)cc1)C2 (configuration not stated)
4,929,Cc1nc2cc(-c3noc(-c4ccc(C#N)cc4)n3)ccc2n(C(C)C)c1=O
5,583,Cc1cc(N2CCN(C)CC2)nc2ccc(NC(=S)N(C)C3CCCCC3)cc12
6,782,Cc1ccc(CNC(=O)C2CCCN(C(=O)C3Sc4ccccc4NC3=O)C2)cc1 (configuration not stated)
7,1280,Cc1ccc(-c2noc(C3CCCN3C(=O)c3ccc(C(C)(C)C)cc3)n2)cc1 (configuration not stated)
8,1060,CCc1ccc(NC(=O)N2CCc3cn(CC)c4cccc(c34)C2)cc1
9,1140,Cc1ccc(C)c(N2CCN(c3ccnc(SCC(=O)Nc4ccc(Cl)cc4F)n3)CC2)c1
10,870,O=C(Cn1ccc2ccc(N3CCOCC3)nc21)NCc1ccc(F)cc1F
11,1380,CCc1ccc(CNC(=O)C2CCCN(c3nc4c(s3)c(C)nn4-c3ccc(Cl)cc3)C2)cc1 (configuration not stated)
12,750,Cc1cc(C)n(C(C)CC(=O)N2CCN(S(=O)(=O)c3ccc(Cl)cc3)CC2)n1 (configuration not stated)
13,692,Cc1ccc(NC(=O)N2CCCC2c2nncn2C2CCCC2)c(C)c1 (configuration not stated)
14,1220,COc1ccccc1-c1noc(-c2nnn3c2COC(c2ccc(Cl)cc2)C3)n1 (configuration not stated)
15,800,CSc1nc(=O)[nH]nc1Sc1ccccc1
16,710,Cc1ccc(CNS(=O)(=O)c2c(C)nc3sc(C)nn23)o1
17,890,CCCn1cc(S(=O)(=O)Nc2cc(F)ccc2F)c2cccnc21
18,794,CCC(=O)N(C)CCc1noc(-c2ccc(C(=O)NC3CCCCCC3)cc2)n1
19,743,CCn1ccc(NC(=O)c2cccc(C)c2)n1
20,611,Cc1nc(N)n(CC(=O)NCc2ccccc2)c(=O)c1C
21,758,COc1ccc(NC(=O)C2CC(=O)N(CCc3c[nH]c4ccc(F)cc34)C2)cc1 (configuration not stated)
22,681,CN(C)CCn1nnc2cc(-c3noc(-c4ccccc4Br)n3)ccc21
23,603,Cc1cc(C)cc(NC(=O)c2cnn3c2CCCC3)c1

row,RP-LC retention time [s],SMILES
1,655,CN(C(=O)Cn1nc(Cc2ccncc2)c2ccccc2c1=O)c1ccc(Br)cc1
2,652,O=C(Nc1cccn2cnnc12)c1ccccn1
3,812,Cc1nc(C2CN(S(=O)(=O)c3ccccc3F)CC23CCOCC3)no1 (configuration not stated)
4,856,O=S(=O)(Nc1cccc(F)c1)c1ccc(-c2nnc(C3CCC3)o2)o1
5,710,CCc1ccc(NC(=O)NCC(c2cccnc2)c2c[nH]c3ccccc23)cc1 (configuration not stated)
6,662,CC(C)c1ccc(OCC(=O)Oc2ccc3c(c2)ncn3C)cc1
7,795,CCOC(=O)c1c(S(=O)(=O)N2CCC(C(=O)NCc3ccccc3)CC2)c(C)n(C)c1C
8,649,COc1ccc(NC(=O)N2CCN(C3=CC4=NC(C)CN4C=N3)CC2)c(C)c1 (configuration not stated)
9,898,CCCn1cc(S(=O)(=O)Nc2ccc(F)c(F)c2)c2cccnc21
10,1070,CSc1ccc(-c2noc(Cn3c(=O)n(-c4cccc(C)c4)c(=O)c4sccc43)n2)cc1
11,575,Cn1cccc1C(CNS(=O)(=O)c1ccc(F)c(Cl)c1)N1CCOCC1 (configuration not stated)
12,643,O=C(NC1CCN(c2cc(-c3cccnc3)[nH]n2)CC1)c1ccc(F)c(Cl)c1
13,644,Cc1nc(-c2ccc(S(=O)(=O)N3CCN(c4ccc(N5CCOCC5)nn4)CC3)cc2)co1
14,753,COc1ccc(N2CCN(C(=O)Cn3ccc4ccc(-c5nnc(C)o5)cc43)CC2)cc1
15,580,O=C(Nc1ccc(OCC(=O)N2CCN(c3ccccn3)CC2)nc1)C1CC1
16,1060,COc1ccc(-c2nnc(-c3cccnc3N3CCN(c4ccc(C)cc4)CC3)o2)cc1
17,1170,CCOC(=O)Cc1sc(Nc2nc3ccccc3s2)nc1-c1ccccc1
18,807,CCC1Oc2ccc(S(=O)(=O)N3CCC(C(=O)NCc4cccs4)CC3)cc2NC1=O (configuration not stated)
19,747,COCc1nc2cccnc2n1C1CCN(C(=O)Nc2cc(C)cc(C)c2)CC1
20,766,O=C(c1cc(-c2cccc(Cl)c2)nc2ccccc12)N1CCN(c2ccccn2)CC1
21,818,O=C(NC1CCCCC1)N1CCCC(c2nnnn2-c2ccccc2)C1 (configuration not stated)
